Holding throughout (type): cell-based
One assay relates to GT1a-H77 replicon. Nature of the assay: Stable replicon assay, comparison to daclatasvir, GT1a-H77. The conditions noted are these: Hepatitis C virus; Replicon GT1a-H77, NS5A genotype 1a. The procedure: (§1) Stable HCV replicon cell lines were grown in complete media (Dulbecco's modified Eagle medium [DMEM], 2 mM L-glutamine, 0.1 mM essential amino acids, 1 mM sodium pyruvate, 10% fetal bovine serum) with the addition 500 μg/ml […] (G418). Huh7-lunet cells were maintained in the same medium without the addition of G418. Cells were routinely passaged at a dilution of 1:5 two times per week. For stable replicon assays (GT1a-H77, GT1b-Con1, GT2a-JFH, GT2a-J6, GT2a-2b-MD2b, GT2a-2b-J8, GT2a-3a-S52, GT3a-552, GT4a-ED43, GT2a-5a-SA13, GT2a-6a-EUKH2, GT2a-6a-HK6a, and GT2a-7a-QC69), an 8-point 3-fold or half-log dilution series of compound was transferred into three replica 96-well plates containing 1×10^4 cells per well in phenol red-free complete media without G418. For the transient replication assay, Huh7-lunet cells in ice-cold phosphate buffered saline (PBS) were electroporated (Bio-Rad Gene pulser: 950 uF, 270V) with 10 μg purified in vitro transcribed HCV replicon RNA, followed by resuspension in phenol red-free complete media without G418 and plating (1×10^4 cells in 200 μL media/well) into three replica 96-well plates prior to compound addition (1 μl compound per well). For stable and transient replicon assays, luciferase activity of compound-treated cells was measured relative to DMSO-treated cells after 72 h incubation using RENILLA-GLO™ Luciferase Assay (Promega). […]
For orientation: A replicon is a self-replicating genome or part of one, used to study replication in cells.

Another assay has as its system GT1b-Con1 replicon. Kind of assay: Stable replicon assay, comparison to daclatasvir, GT1b-Con1. The following applies: Hepatitis C virus; Replicon GT1b-Con1, NS5A genotype 1b. As to the method:
as §1

The subject of another assay is GT2a-7a-QC69 replicon. Kind of assay: Stable replicon assay, comparison to daclatasvir, GT2a-7a-QC69. The conditions noted are these: Hepatitis C virus. The source says: The plasmid pSG-hRlucNeo-JFH1 was generated from pSG-Neo-JFH1 (Kato et al. 2003, Gastroentrology 125:1808-1817). A fragment containing the JFH-1 5′ NTR-hRluc-Neo gene and two unique restriction sites (AgeI and PmeI) was synthesized (Integrated DNA Technologies, Coralville, Iowa). The resulting plasmid was digested with AgeI and PmeI and the excised fragment (5′NTR-hRluc-Neo) was ligated into pSG-Neo-JFH1 digested with the same enzymes to generate pSG-hRlucNeo-JFH1. To allow expression of heterologous NS5A sequences, an NS5A shuttle vector was generated from pSG-Neo-JFH1, in which the entire coding sequence of NS5A plus the first eight codons of NS5B were replaced with an AfeI restriction site. This was done by Infusion cloning (Clontech, Mountain View, Calif.) from two PCR products that were generated using pSG-Neo-JFH1 as a template and the following primer pairs: […]
Stable HCV replicon cell lines were grown in complete media (Dulbecco's modified Eagle medium [DMEM], 2 mM L-glutamine, 0.1 mM essential amino acids, 1 mM sodium pyruvate, 10% fetal bovine serum) with the addition 500 μg/ml […] (G418). […] For stable and transient replicon assays, luciferase activity of compound-treated cells was measured relative to DMSO-treated cells after 72 h incubation using RENILLA-GLO™ Luciferase Assay (Promega). […]

By EC50 is commonly meant the midpoint of the concentration-response curve. A higher EC50 goes with lower potency in that assay. As for `COC(=O)N[C@H](C(=O)N1C[C@]2(CCCOC2)C[C@H]1c1ncc(-c2ccc(-c3ccc4c(ccc5nc([C@@H]6C[C@@H]7CCC[C@@H]7N6C(=O)[C@@H](NC(=O)OC)C(C)C)[nH]c54)c3)cc2)[nH]1)C(C)C` [Compound 16], the EC50 came to 7 pM in the assay with GT1a-H77 replicon, 8 pM with GT1b-Con1 replicon and 20 pM with GT2a-7a-QC69 replicon.
The like results for `COC(=O)N[C@H](C(=O)N1CCC[C@H]1c1nc(-c2ccc(-c3ccc(-c4c[nH]c([C@@H]5CCCN5C(=O)[C@@H](NC(=O)OC)C(C)C)n4)cc3)cc2)c[nH]1)C(C)C` [Daclatasvir, reference compound] were, in that order, 60 pM, 20 pM and 16 pM.

(Values after patent publication US10407445B2, “Hepatitis C virus inhibitors” (ENANTA PHARMACEUTICALS, INC., priority 2013, dated 2019).)
